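Each compound was tested at five concentrations against cells in 96-well plates for 48 hours. GI50 is the concentration that inhibits growth by half. TGI is the concentration that stops growth completely.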

What all share (test): inhibition of tumour cell growth, NCI panel, 48 h
For assay [1], the system named is HCT-15 colon.
The subject of assay [2] is HOP-62 NSCLC.
The subject of assay [3] is OVCAR-5 ovarian.
For assay [4], the system named is NCI-H460 lung.
Assay [5] relates to MOLT-4 leukemia.
Assay [6] concerns EKVX NSCLC.
The test system of assay [7] is SK-MEL-2 melanoma.
For assay [8], the system named is HL-60(TB) leukemia.
Assay [9] relates to SNB-75 CNS.
For assay [10], the system named is RXF 393 renal.

Turning to `COC(=O)C(Nc1ccc(OC)cc1)c1ccccc1` (stereo not given), the TGI in assay [1], in [2], in [3], in assay [4], in [5] and in [6] was greater than 100 µM in each case. The compound further registered a TGI in [7] greater than 100 µM.

Consider `O=C1OC2(c3ccccc3Oc3ccccc32)c2ccccc21`, for which the TGI in assay [1], in assay [2], in assay [3], in assay [4], in assay [5] and in [6] was greater than 100 µM throughout. Besides, the TGI in [7], in assay [8] and in assay [9] was greater than 100 µM in each case.

`CCOC(=O)C1C(=O)c2ccccc2CN1Cc1ccccc1` (stereo not given): the TGI in assay [1], in [2], in assay [3], in assay [4], in [5] and in assay [6] was greater than 100 µM in each case. The TGI in assay [7], in [8] and in [9] was greater than 100 µM each time.

Consider `CCOC(=O)C(=O)Nc1c(N(CC)CC)n2ccccc2nc1=O`, for which the TGI in assay [1], in [2], in assay [3], in assay [4], in assay [5] and in assay [6] was greater than 100 µM in each case. For the same compound, the TGI in [7] and in assay [9] was greater than 100 µM each time.

On to `COC(=O)/C(=C\c1c(C)[nH]c2ccccc12)S(=O)(=O)c1ccccc1`, for which the GI50 in assay [1] is 3.07 µM; in assay [2] it was 7.69 µM; in assay [3], 17.4 µM; in assay [10], 3.63 µM; in assay [4], 2.99 µM; in assay [5] it was 1.9 µM. The GI50 in assay [6] is 5.04 µM; in assay [7], 10.6 µM; in assay [9], 3.08 µM. For the same compound, the TGI in assay [1] was 12.8 µM; in assay [2] it was 29.4 µM; in assay [3] it was 38 µM; in assay [10] it was 31.9 µM; in assay [4], 9.61 µM; in assay [5] it was greater than 100 µM. Besides, the results for the TGI in [6], in assay [7] and in assay [9] were greater than 100 µM, 25.5 µM and 14.6 µM, respectively.

For `O=C(Oc1ccc(CCl)cc1)c1ccccc1`, the GI50 is 0.181 µM in assay [1]; 0.17 µM in [2]; 0.161 µM in [3]; 0.174 µM in assay [10]; 0.238 µM in assay [4]; 0.188 µM in assay [5]. Further, the GI50 was 0.531 µM in assay [6], 0.175 µM in [7] and 0.172 µM in assay [9]. Further, the TGI in assay [1] came to 0.393 µM; in assay [2] it was 0.333 µM; in assay [3] it was 0.302 µM; in assay [10], 0.332 µM; in assay [4], 1.09 µM; in assay [5], 0.538 µM. Also, the TGI in assay [6] came to 1.79 µM; in assay [7], 0.358 µM; in assay [9], 0.356 µM.

On to `OCCCCC#Cc1ccccc1C#Cc1ccccc1C(F)(F)F`, for which the GI50 is 3.5 µM in assay [1]; 8.46 µM in assay [2]; 14.7 µM in [3]; 3.39 µM in [10]; 17.9 µM in [4]; 2.63 µM in assay [5]. In addition, the results for the GI50 in assay [6], in assay [7] and in [9] were 12.7 µM, 15.6 µM and 18.7 µM, respectively. In addition, the TGI in assay [1] is 16 µM; in [2], greater than 100 µM; in [3], 30.8 µM; in assay [10] it was 12.5 µM; in [4] it was 34.7 µM; in assay [5], 12.9 µM. Moreover, the TGI in assay [6] came out at 26.8 µM; in assay [7], 32.6 µM; in assay [9] it was 35.9 µM.

For the compound `CCOP(=O)(OCC)/C(C#N)=C/c1ccco1`, the TGI in assay [1], in assay [2], in assay [3], in [4], in [5] and in assay [6] was greater than 100 µM in each case. Moreover, the TGI in [7], in assay [8] and in [9] was greater than 100 µM in each case.

Consider `CC[N+](CC)(CC)CCCn1c2c(c3ccccc3c1=O)C(=O)c1ccccc1-2`, for which the GI50 in assay [1] was 4.97 µM; in [3] it was 16.5 µM; in [10], 0.056 µM; in assay [4], 1.85 µM; in assay [5], 5.58 µM; in [7], 21.8 µM. Besides, the GI50 in assay [8] was 58.6 µM; in assay [9], 80 µM. Moreover, the TGI in assay [1] is greater than 100 µM; in [3] it was 48.6 µM; in assay [10] it was 17.6 µM; in assay [4], 4.49 µM; in assay [5] it was greater than 100 µM; in assay [7] it was 53.4 µM. Moreover, the TGI in assay [8] and in assay [9] was greater than 100 µM in each case.

On to `Nc1ccccc1C#C/C=C\C#Cc1ccc(Cl)cc1Cl`, for which the GI50 in assay [2] was 16.6 µM; in assay [3], 13.8 µM; in assay [10], 14.3 µM; in [4] it was 10.7 µM; in assay [5] it was 1.62 µM; in assay [6], 18.8 µM. Moreover, in assay [7], the GI50 is 25 µM. In addition, the TGI in assay [2] was 32.8 µM; in assay [3], 28.7 µM; in [10], 40.7 µM; in assay [4], 26.5 µM; in assay [5], greater than 100 µM; in [6], 47.9 µM. The TGI in [7] came to 70.1 µM.

As to `c1ccc(N=C2c3ccccc3C3=NCCCN32)cc1`, the TGI in assay [1], in [2], in assay [3], in assay [10], in [4] and in assay [5] was greater than 100 µM each time. The TGI in [6], in [7] and in assay [9] was greater than 100 µM each time.

(Values after PubChem BioAssay (NCI).)
